According to ChEMBL document CHEMBL5465560, “Selectivity Literature for EUbOPEN Chemogenomic Library” (2024):

Assays:
[1] = molecular target: T1, Diacylglycerol kinase eta (Homo sapiens) (UniProt Q86XP1); assay: Selectivity interaction (ActivX KiNativ screen (kinase selectivity in THP-1 cell lysates)) EUB0000639a DGKH; format: subcellular; settings: lysate
T1 sequence (whole entry): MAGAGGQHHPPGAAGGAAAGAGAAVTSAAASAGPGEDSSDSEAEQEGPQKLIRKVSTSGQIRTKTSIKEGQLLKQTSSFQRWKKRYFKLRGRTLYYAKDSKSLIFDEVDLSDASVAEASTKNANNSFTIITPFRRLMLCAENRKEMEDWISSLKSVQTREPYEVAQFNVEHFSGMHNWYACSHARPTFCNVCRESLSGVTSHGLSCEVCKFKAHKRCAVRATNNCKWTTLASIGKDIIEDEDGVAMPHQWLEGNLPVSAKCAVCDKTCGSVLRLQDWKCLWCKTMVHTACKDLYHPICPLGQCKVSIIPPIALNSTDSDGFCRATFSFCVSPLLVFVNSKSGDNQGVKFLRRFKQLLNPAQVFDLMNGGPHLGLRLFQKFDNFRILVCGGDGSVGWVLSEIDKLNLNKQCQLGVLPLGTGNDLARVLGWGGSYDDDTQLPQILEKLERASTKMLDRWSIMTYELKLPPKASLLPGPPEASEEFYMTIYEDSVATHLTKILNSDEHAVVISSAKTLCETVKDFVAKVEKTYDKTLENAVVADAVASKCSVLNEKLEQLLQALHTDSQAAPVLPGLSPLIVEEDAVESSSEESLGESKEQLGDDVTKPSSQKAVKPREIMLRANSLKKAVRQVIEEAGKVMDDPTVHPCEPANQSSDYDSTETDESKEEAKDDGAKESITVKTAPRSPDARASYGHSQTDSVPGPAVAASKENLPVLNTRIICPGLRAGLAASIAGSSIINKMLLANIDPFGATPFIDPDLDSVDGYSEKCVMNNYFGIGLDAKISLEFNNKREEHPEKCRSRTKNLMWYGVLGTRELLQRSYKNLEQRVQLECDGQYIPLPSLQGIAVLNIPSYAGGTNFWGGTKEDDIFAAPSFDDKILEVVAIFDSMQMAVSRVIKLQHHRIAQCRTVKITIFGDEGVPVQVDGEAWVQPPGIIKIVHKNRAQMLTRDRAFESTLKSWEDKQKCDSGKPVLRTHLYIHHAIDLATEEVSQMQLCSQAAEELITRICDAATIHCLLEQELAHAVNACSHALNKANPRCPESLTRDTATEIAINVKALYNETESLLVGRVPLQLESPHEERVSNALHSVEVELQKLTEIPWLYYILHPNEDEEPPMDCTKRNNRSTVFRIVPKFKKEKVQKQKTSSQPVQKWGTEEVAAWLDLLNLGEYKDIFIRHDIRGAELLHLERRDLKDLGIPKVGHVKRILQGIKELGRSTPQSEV

[2] = molecular target: Serine/threonine-protein kinase Nek4 (Homo sapiens) (UniProt P51957); assay: Selectivity interaction (Kinase panel (Invitrogen)) EUB0000639a NEK4; settings: at 200 nM
[3] = molecular target: Cyclin-dependent kinase 13 (Homo sapiens, UniProt Q14004); assay: Selectivity interaction (KinomeScan (DiscoverX)) EUB0001079a CDK13; settings: at 1 µM
[4] = molecular target: T2, Tyrosine-protein kinase Mer (Homo sapiens) (UniProt Q12866); assay: Selectivity interaction (ProQinase) EUB0000171b MERTK
T2 sequence (whole entry): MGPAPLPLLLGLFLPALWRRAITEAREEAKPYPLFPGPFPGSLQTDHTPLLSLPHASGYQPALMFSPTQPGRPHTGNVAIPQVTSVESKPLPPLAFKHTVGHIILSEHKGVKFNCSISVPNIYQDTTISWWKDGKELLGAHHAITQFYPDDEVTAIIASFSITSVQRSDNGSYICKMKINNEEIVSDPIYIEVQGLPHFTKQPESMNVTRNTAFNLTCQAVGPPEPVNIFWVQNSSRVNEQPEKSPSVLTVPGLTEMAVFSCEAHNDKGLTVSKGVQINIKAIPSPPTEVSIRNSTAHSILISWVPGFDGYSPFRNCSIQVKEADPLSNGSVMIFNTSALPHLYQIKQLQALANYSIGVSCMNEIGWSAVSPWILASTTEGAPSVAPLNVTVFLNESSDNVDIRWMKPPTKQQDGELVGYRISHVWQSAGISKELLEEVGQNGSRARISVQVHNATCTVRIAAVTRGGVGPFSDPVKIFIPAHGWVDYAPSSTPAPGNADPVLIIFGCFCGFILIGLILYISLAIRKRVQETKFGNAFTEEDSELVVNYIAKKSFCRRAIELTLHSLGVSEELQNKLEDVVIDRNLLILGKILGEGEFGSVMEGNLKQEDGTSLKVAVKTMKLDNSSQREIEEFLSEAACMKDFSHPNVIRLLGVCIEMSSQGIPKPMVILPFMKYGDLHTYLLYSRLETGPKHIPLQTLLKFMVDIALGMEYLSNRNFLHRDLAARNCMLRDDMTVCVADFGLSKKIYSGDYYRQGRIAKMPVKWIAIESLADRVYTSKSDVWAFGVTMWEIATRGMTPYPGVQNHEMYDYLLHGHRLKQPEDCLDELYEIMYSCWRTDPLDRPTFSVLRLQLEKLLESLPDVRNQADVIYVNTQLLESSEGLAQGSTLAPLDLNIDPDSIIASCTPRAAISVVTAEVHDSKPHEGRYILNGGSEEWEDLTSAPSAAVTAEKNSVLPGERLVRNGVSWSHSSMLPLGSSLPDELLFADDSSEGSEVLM

[5] = molecular target: Serine/threonine-protein kinase 38 (Homo sapiens) (UniProt Q15208); assay: Selectivity interaction (Kinase panel (KiNativ target engagement assay in Jurkat cells)) EUB0001635a STK38; format: cell-based; settings: Selectivity number of off-targets 0.0, Selectivity number of targets 233.0, Source Knowledge https://www.sciencedirect.com/science/article/pii/S2451945619300674?via%3Dihub, at 1 µM
[6] = molecular target: Phosphatidylinositol 4-kinase alpha (Homo sapiens, UniProt P42356); assay: Selectivity interaction (Kinase panel (KiNativ target engagement assay in Jurkat cells)) EUB0001635a PI4KA; format: cell-based; settings: Selectivity number of off-targets 0.0, Selectivity number of targets 233.0, Source Knowledge https://www.sciencedirect.com/science/article/pii/S2451945619300674?via%3Dihub, at 1 µM
[7] = molecular target: Ribosomal protein S6 kinase beta-1 (Homo sapiens, UniProt P23443); assay: Selectivity interaction (KinomeScan (DiscoverX)) EUB0000666a RPS6KB1; settings: at 10 µM
[8] = molecular target: Homeodomain-interacting protein kinase 1 (Homo sapiens, UniProt Q86Z02); assay: Selectivity interaction (KinomeScan (DiscoverX)) EUB0000666a HIPK1; settings: at 10 µM
Sequence of Homeodomain-interacting protein kinase 1 (Q86Z02 whole entry, looked up): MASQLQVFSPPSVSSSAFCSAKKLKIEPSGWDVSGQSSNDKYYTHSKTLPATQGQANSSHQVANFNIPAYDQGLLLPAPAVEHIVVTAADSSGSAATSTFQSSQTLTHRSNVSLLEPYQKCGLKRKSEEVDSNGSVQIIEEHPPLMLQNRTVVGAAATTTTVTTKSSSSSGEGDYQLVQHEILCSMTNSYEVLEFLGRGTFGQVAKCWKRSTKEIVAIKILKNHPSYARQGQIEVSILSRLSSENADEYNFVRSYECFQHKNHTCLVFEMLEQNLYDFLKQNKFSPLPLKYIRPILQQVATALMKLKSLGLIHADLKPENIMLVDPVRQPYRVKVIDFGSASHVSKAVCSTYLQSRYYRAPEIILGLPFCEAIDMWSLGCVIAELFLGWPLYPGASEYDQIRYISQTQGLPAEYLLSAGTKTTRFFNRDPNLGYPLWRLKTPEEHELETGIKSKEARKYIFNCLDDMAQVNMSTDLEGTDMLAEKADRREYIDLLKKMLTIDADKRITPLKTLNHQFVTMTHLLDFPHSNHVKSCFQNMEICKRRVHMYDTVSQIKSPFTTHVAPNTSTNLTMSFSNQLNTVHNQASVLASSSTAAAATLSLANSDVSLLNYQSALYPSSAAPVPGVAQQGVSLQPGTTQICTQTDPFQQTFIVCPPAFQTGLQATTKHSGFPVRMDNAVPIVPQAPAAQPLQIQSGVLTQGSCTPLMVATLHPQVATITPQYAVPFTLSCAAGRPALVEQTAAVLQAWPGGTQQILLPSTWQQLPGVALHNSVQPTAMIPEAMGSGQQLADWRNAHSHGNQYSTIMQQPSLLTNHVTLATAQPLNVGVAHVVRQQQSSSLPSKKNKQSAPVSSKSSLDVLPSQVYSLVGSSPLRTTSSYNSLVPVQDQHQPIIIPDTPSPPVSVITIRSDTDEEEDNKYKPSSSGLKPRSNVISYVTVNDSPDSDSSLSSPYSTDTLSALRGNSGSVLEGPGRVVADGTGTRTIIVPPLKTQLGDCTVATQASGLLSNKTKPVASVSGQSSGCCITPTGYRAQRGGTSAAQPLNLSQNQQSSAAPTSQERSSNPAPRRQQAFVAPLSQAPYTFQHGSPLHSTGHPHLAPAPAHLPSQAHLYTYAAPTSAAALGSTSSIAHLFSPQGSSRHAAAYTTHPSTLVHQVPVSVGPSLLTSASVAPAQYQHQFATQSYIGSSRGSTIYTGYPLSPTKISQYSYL

Sequence of Ribosomal protein S6 kinase beta-1 (P23443 whole entry, looked up): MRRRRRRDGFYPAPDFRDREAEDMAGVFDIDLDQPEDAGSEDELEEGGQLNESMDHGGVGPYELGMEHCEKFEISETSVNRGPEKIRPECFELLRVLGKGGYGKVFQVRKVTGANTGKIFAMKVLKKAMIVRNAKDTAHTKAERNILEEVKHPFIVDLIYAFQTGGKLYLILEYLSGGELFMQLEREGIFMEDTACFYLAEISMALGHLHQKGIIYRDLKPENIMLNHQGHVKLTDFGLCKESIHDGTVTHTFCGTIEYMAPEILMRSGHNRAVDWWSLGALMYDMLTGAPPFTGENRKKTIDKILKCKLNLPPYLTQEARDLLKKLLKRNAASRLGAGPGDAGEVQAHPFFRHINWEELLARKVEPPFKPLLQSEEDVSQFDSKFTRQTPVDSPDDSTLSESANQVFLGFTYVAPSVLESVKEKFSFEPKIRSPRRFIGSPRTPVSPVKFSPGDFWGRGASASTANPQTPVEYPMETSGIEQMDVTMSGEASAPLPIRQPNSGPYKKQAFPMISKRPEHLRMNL
Sequence of Cyclin-dependent kinase 13 (Q14004 whole entry, looked up): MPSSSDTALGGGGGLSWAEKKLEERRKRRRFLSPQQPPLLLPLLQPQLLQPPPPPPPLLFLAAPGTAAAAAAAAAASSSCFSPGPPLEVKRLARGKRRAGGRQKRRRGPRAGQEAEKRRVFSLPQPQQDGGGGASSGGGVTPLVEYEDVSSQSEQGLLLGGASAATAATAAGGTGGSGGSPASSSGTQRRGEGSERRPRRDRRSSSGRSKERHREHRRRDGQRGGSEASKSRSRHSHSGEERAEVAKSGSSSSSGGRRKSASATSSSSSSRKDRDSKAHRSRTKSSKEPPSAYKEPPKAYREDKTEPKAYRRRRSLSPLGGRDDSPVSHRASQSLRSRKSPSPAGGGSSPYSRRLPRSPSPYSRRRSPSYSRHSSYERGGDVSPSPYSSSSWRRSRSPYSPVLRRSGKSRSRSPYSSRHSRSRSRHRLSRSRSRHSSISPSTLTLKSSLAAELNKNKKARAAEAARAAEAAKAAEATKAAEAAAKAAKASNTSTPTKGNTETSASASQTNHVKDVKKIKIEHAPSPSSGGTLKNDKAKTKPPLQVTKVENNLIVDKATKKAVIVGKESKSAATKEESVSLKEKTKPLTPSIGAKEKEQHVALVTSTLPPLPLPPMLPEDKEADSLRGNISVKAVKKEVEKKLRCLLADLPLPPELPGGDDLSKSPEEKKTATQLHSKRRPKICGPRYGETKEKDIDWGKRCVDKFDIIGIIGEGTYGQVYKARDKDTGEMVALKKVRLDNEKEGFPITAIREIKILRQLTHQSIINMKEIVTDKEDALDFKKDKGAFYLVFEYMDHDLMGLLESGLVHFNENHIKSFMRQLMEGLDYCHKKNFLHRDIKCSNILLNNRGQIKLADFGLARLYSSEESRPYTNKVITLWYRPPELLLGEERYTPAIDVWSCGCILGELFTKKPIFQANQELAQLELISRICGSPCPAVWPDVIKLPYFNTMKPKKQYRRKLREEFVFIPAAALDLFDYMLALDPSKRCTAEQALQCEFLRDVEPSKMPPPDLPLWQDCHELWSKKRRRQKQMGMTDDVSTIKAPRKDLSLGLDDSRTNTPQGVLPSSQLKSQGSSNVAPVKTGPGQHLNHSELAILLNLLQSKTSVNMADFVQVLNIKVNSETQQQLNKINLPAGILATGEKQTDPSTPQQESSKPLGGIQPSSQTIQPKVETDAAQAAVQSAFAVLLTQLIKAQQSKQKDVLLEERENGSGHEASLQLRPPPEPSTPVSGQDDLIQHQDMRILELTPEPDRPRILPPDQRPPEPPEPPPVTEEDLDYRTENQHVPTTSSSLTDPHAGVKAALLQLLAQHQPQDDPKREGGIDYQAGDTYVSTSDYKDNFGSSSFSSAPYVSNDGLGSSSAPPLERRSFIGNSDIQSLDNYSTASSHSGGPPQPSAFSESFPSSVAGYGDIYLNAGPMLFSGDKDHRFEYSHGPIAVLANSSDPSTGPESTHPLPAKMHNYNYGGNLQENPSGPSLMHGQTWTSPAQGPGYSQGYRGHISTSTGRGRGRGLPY
Sequence of Serine/threonine-protein kinase Nek4 (Homo sapiens) (P51957 whole entry, looked up): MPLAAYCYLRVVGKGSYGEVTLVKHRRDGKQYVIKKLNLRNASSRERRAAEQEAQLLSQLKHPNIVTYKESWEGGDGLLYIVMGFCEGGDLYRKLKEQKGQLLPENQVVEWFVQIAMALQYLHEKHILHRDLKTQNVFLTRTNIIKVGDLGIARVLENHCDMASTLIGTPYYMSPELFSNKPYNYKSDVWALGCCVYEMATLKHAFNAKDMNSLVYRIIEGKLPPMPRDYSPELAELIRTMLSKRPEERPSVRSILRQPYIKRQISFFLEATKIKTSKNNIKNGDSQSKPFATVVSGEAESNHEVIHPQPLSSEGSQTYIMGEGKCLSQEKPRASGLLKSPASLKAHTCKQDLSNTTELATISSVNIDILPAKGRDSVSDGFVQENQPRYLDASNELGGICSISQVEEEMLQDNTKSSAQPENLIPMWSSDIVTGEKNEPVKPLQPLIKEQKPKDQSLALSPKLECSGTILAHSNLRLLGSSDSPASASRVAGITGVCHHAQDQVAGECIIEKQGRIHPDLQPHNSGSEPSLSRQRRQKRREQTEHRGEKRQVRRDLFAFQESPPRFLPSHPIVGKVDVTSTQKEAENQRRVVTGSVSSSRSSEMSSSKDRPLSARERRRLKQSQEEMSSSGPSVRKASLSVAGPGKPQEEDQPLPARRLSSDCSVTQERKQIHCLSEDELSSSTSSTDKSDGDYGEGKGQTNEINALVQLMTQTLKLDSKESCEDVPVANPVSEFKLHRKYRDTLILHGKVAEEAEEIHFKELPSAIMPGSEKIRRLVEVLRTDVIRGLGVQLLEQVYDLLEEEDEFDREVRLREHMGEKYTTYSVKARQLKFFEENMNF
Sequence of Serine/threonine-protein kinase 38 (Homo sapiens) (Q15208 2-465 limits assumed): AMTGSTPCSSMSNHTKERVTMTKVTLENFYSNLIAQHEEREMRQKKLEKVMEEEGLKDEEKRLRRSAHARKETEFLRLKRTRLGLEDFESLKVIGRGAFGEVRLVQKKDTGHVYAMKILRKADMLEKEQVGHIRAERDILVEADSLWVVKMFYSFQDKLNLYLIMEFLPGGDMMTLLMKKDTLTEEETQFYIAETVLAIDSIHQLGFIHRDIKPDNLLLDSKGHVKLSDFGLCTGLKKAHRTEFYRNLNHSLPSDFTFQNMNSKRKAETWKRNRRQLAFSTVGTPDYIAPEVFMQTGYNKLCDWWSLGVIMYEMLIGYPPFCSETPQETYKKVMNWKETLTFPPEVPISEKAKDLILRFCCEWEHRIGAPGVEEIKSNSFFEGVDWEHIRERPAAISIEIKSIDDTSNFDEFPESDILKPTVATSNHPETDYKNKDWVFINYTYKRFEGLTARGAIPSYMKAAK

For `CC[C@@H]1[C@H](F)C(=O)N[C@@H]1COc1nccc2cc(C(N)=O)c(OC)cc12` [ZIMLOVISERTIB], the % of inhibition ([1]; at 0.01 µM) was 12.2%, the % of inhibition ([1]; at 0.04 µM) was 0% and the % of inhibition ([1]; at 0.2 µM) was 20%. The % of inhibition ([1]; at 1 µM) was 0.8%, the % of inhibition ([1]; at 5 µM) was -3.6% and the % of inhibition [2] was 3.25%.
`Nc1cnc(N2CCc3cc(S(=O)(=O)Nc4c(F)cc(Cl)cc4F)cc(N4CCCC4=O)c32)nc1` [TP-020n] gave a % of control [3] of 100%.
`C=CC(=O)Nc1cccc(C(=O)Nc2ccc(Nc3cc(-c4[nH]c(SC)nc4C)ccn3)cc2)c1` was tested, and the % of control ([4]; at 1 µM) was 76% and the % of control ([4]; at 5 µM) was 41%.
Work on `C=CC(=O)Nc1ccc(C(=O)Nc2[nH]nc3c2CN(C(=O)N[C@H](CN(C)C)c2ccccc2)C3(C)C)cc1` yielded a % of engagement [5] of -3.5% and a % of engagement [6] of 5.7%.
Work on `O=C(NOC[C@H](O)CO)c1ccc(F)c(F)c1Nc1ccc(I)cc1F` yielded a % of control [7] of 100% and a % of control [8] of 91%.
